Test: Human HepG2 cell viability assay in 384 well format
Type: toxicity, cell-based
Design: dose 125 nL, time 70.5 hour; cytotoxicity at 70.5 h: concentration not given beside the values
Details: HepG2 cells, read-out: Inhibition

Row | SMILES | cytotoxicity at 70.5 h [%]
1 | CNCC[C@H]1CC(C)(C)Oc2ccc(OCC3CC3)cc21 | 7.09
2 | O=C(CC1CCCO1)Nc1cccc(N2CCN(CC3CC3)CC2)c1 (stereo not drawn) | 0.099
3 | O=C(CSc1nnc(N2CCOCC2)s1)NCc1cccs1 | -2.54
4 | COc1c(C(=O)NC(C)CC(=O)c2cccs2)c(C)nn1C (stereo not drawn) | -0.066
5 | CCCn1ccnc1CN1C[C@@H](CN2CCCN(C)CC2)[C@@H](CO)C1 | -9.5
6 | CN(Cc1ccsc1)C(=O)Nc1cccc(N2CCOC2=O)c1 | 26.8
7 | Cc1cc(CN(C)C(=O)c2ccc(F)cc2F)no1 | -7.99
8 | CCc1nnc2n1CCN(Cc1csc(NC(C)=O)n1)C2 | -3.38
9 | CCCn1nc2c(cc1=O)CN(CC(=O)Nc1nnc(C)s1)CC2 | -22
10 | Cc1n[nH]c(C2CN(C(=O)c3ccc(Cl)o3)CCO2)n1 (stereo not drawn) | -11.1
11 | Nc1nccc(-c2c[nH]nc2C2CCCCC2)n1 | 47.1
12 | c1ccc(CN2CC[C@H]3[C@H]2CCN3c2ncccn2)nc1 | -5.09
13 | Cc1cc(CN2CCOC(CN(C)c3cccnn3)C2)no1 (stereo not drawn) | -11.5
14 | Cc1[nH]c2ccccc2c1-c1ccnc(N[C@@H](CO)C(C)C)n1 | -3.22
15 | COCCCn1ccc(NC2CCSCC2)n1 | -8.74
16 | Cc1nc2sccn2c1CNc1cc(C(=O)O)ccc1F | -7.72
17 | CCNC(=O)N1CCN(c2nc3ccccc3n2C)CC1 | -3.78
18 | CCC1CN(C)c2ccccc2CN1C(=O)c1c[nH]c(=O)cc1C (stereo not drawn) | -11.3
19 | CNC(=O)CC1CCN(Cc2nc(-c3cccc(Cl)c3)oc2C)CC1 | -7.93
20 | CC(Nc1ccc(CC(=O)N(C)C)cc1)C(=O)N(C)CCC#N (stereo not drawn) | -12.3
21 | COC(=O)NCC(=O)N(C)Cc1csc(C)n1 | -4.39
22 | c1cnc(N2CCOCC3(CCCN(CC4CC4)C3)C2)cn1 (stereo not drawn) | -5.91
23 | Cc1cnc(N)c(C(=O)C2CCN(C(=O)c3cnc(C)cn3)CC2)c1 | -13

Row | SMILES | cytotoxicity at 70.5 h [%]
24 | Cc1nc(CN2C(=O)CC[C@@H]3[C@H]2CCN3C(=O)C2CCCO2)cs1 (stereo partly drawn) | -8.01
25 | COc1ccc(NC(=O)CN2CCS(=O)(=O)CC2)cn1 | -10.4
26 | COc1ccc(NC(=O)c2ccc(CN3CC[C@H](O)C3)cc2)c(OC)n1 | -7.69
27 | Cc1cccc(CN2CCCn3c(nnc3CN3CCCC3=O)C2)n1 | -9.11
28 | Cc1cc(C(=O)N2CCC(O)(Cn3c(C)cc4ccncc43)CC2)on1 | -0.77
29 | O=C(NCCN1CCCCC1)c1ccn(-c2ccc(F)cc2)n1 | 0.39
30 | CS(=O)(=O)N1CC[C@]2(O)CCN(CCCC(=O)c3ccccc3)C[C@@H]2C1 | -2.45
31 | Cc1cc(C)n(Cc2cc(C(=O)N3CCCC3c3ccccn3)n[nH]2)n1 (stereo not drawn) | -17.2
32 | O=C(c1ccnnc1)N1C[C@@H]2COC[C@]2(COCC2CC2)C1 | -7.55
33 | CC(=O)NCc1ccc(S(=O)(=O)NC(=O)c2ccc3c(c2)CCO3)s1 | -2.05
34 | CCSCc1cccc(NC(=O)N(C)Cc2ncnn2C)c1 | -3.07
35 | CN(CC(=O)NCC(F)(F)F)C(=O)c1ccc(C(=O)OC(C)(C)C)cc1 | -0.193
36 | O=C1N(Cc2cccc(Cl)c2)CCC12CCCNC2 (stereo not drawn) | -12.1
37 | Cc1cncc(NC(=O)c2ccc(CN3CC[C@H](O)C3)cc2)c1 | 19.1
38 | c1cc(CO[C@@H]2CC[C@H]3[C@H]2OCCN3CC2CCOCC2)ccn1 | 21.5
39 | CC(C)Nc1nc(O)cc(C2CC(=O)N(Cc3ccccn3)C2)n1 (stereo not drawn) | -5.33
40 | Cc1cccc(NCCNc2ccc(C#N)cn2)n1 | -5.87
41 | Cc1cc(C)n(-c2ccc(C(C)NS(=O)(=O)CCCS(C)(=O)=O)cc2)n1 (stereo not drawn) | 19.6
42 | O=C1N(c2cccnc2)CCC12CCCN(Cc1cccnc1)C2 (stereo not drawn) | -4.25
43 | OC1(CNC2CCN(Cc3ccncc3)CC2)CCc2ccccc21 (stereo not drawn) | -5.39
44 | COCCNC(=O)c1nc(NS(=O)(=O)c2ccccc2)sc1C | -18.8
45 | CC(C)CC(=O)N1C[C@@H]2CCN(c3ncccn3)C[C@@H]2C1 | 42.7
46 | O=C(Nc1cccnc1)C1CCN(c2cc(-n3ccnc3)ncn2)CC1 | -5.59

Row | SMILES | cytotoxicity at 70.5 h [%]
47 | O=C(Cc1cccs1)N1C[C@@H]2COC[C@]2(COCc2cccnc2)C1 | -5.53
48 | Cn1nc(COc2cccnc2)c2c1CCN(c1ncccn1)C2 | -14.2
49 | CC(=O)N1CCC2(CC1)C(=O)N(CC1CC1)c1ccccc12 | -11.9
50 | CC(C(=O)Nc1ccc(Cl)cn1)n1ccc(C(F)(F)F)n1 (stereo not drawn) | 1.33
51 | C[C@@H](O)CNC(=O)c1nc(Cc2c(Cl)cccc2Cl)no1 | -8.72
52 | COc1ccccc1-c1nccnc1C1CCN(C(C)=O)CC1 | -6.14
53 | CC(C)=CCN1CCN(C(=O)C2CC2)CC1 | 2.37
54 | Cc1nnc(N2CCN(C)C3(CCC(=O)N(CCO)CC3)C2)s1 (stereo not drawn) | 22.1
55 | CNC(=O)NC(=O)CN(Cc1ccc(C#N)cc1)Cc1cccc(F)c1 | -2.77
56 | Cc1ccc(C(=O)Nc2cc(C(N)=O)ccc2CN(C)C)cc1Cl | -7.51
57 | Cc1cc(C)nc(N2C[C@H]3OC(=O)N(CCc4cccc(Cl)c4)[C@H]3C2)n1 | -0.529
58 | COCCN1CC(C(=O)N(C)Cc2csc(C)n2)CC1=O (stereo not drawn) | 9.18
59 | CCc1ccc(NC(=O)C(C)N2CCN(Cc3ncc[nH]3)CC2)cc1 (stereo not drawn) | -2.82
60 | Cc1cc(OCC(=O)N2CCCC(c3noc(C(C)C)n3)C2)no1 (stereo not drawn) | -1.68
61 | Cc1nnsc1C(=O)NCc1cccnc1N(C)Cc1ccccc1 | -7.67
62 | CCc1nnc(CNC2CCCN(Cc3noc(C4CC4)n3)C2)o1 (stereo not drawn) | -9.18
63 | Cc1ccc(CN2CCN(c3ncccc3Cl)CC2CCO)cc1 (stereo not drawn) | -0.712
64 | CNC(=O)C1CCN(C(=O)CCn2cccn2)CC1 | 26.7
65 | CCc1nc(C)ncc1C(=O)N1CCN(CC)c2ccccc21 | 8.71
66 | CCS(=O)(=O)N1CCCn2cnc(COc3cccnc3)c2C1 | -2.04
67 | Cc1c2nnn(CC(=O)N(C)C)c(=O)c2nn1C | -8.25
68 | CCCS(=O)(=O)N1CCC2(CC1)CN(C(=O)N(C)C)c1ccccc12 | -10.2
69 | CCn1cc2c(n1)C(COC)CN(Cc1ccoc1)C2 (stereo not drawn) | -15.1

Row | SMILES | cytotoxicity at 70.5 h [%]
70 | COc1cccc(N2CCC(N3C[C@@H](NC(C)=O)[C@H](C(C)C)C3)CC2)c1 | -6.54
71 | CCCS(=O)(=O)N1CCN(Cc2ccco2)CC1 | -7.67
72 | Cc1nnc(CCNC2CCN(c3ncnc4c(C)csc34)CC2)s1 | -2.85
73 | Cn1cc(C(=O)N2CCCC(Cc3cnccn3)C2)cn1 (stereo not drawn) | -15.6
74 | CC(O)CN1CCC(CN(C)Cc2cccc(C#N)c2)CC1 (stereo not drawn) | -2.33
75 | COCC(=O)N1CCC(c2ccc(OC)cc2)C1 (stereo not drawn) | -16.3
76 | Cc1csc2c(N3CCC(NCCCC4CCOC4)CC3)ncnc12 (stereo not drawn) | 30.5
77 | Cc1nc(-c2cccc(C#N)c2)nn1CC1(O)CCCCC1 | 3.88
78 | c1ccc2ncc(CC3CCNC3)cc2c1 (stereo not drawn) | 19.8
79 | O=C(CNC(=O)Nc1c(F)cccc1Oc1ccccc1)NC1CC1 | -9.17
80 | Cc1cnn(CC2CCCN2CC(=O)N(C)Cc2cnn(C)c2)c1 (stereo not drawn) | -1.69
81 | CC(C)NC(=O)CC1(Cn2cnnn2)CCCCC1 | -22.1
82 | CCC(=O)N1CCN(C(=O)NCc2c(C)cc(C)cc2C)CC1 | -11.6
83 | O=C(NCCC1=CCCCC1)c1[nH]nc2c1CCCC2 | 11.2
84 | O=C(c1cscn1)N1C[C@H]2CCC[C@@]2(COCc2ccccn2)C1 | -6.34
85 | Fc1ccccc1-c1nnn(CCCc2nn[nH]n2)n1 | -5.54
86 | CCc1ccc(CN2CCCC(c3nn(C)c(=O)n3CC)C2)nc1 (stereo not drawn) | -9.19
87 | CCOCCCn1c(NC(=O)c2cnn(C)c2)nc2ccccc21 | -13.3
88 | CCc1nc(C2CCCN(C(=O)c3ccncc3)C2)no1 (stereo not drawn) | -1.21
89 | CC1CCCCN1C(=O)CCn1cnc2sccc2c1=O (stereo not drawn) | -5.84
90 | CS(=O)(=O)NC[C@]12COC[C@H]1CN(CC1CCC1)C2 | -12.2
91 | c1cc(OCc2ccc3c(c2)OCCO3)ccc1CNC1CC1 | 22.8
92 | CCCc1nc(NCCCOC)c2c(n1)c(C)nn2CC | 18.7

Row | SMILES | cytotoxicity at 70.5 h [%]
93 | CCN(CC)c1ccc(C(=O)NCc2cccnc2-n2cncn2)cn1 | -10.7
94 | Cn1c(CN2CCOCC2)nnc1C1CCN(C(=O)C2CCCC2)CC1 | 2.41
95 | c1nc(CN2CCC3(CC2)COCCN3CC2CC2)c[nH]1 | -18.8
96 | CCOCC1c2c(ncn2C(C)C)CCN1C(=O)C1CC1 (stereo not drawn) | -3.05
97 | O=C(c1ccncc1)N1CC[C@@H]2CN(C3CCOCC3)CCO[C@@H]2C1 | -9.58
98 | CCC(CNC(=O)c1ccc(=O)[nH]n1)N1CCc2ccccc2C1 (stereo not drawn) | -10.3
99 | Cc1ccccc1C(=O)NC1CCN(Cc2ncc(C(C)(C)C)o2)CC1 | -0.562
100 | CCN(CC)c1ccc(CNS(=O)(=O)C2CCOCC2)cc1F | -10.6
101 | O=C(O)C1CCCN1c1nc(-c2ccc(Cl)c(Cl)c2)cc(C(F)(F)F)n1 (stereo not drawn) | -3.95
102 | CO[C@H]1CCN(c2ncccn2)[C@H]1Cc1ccccc1 | -6.47
103 | Cc1cc(C(=O)N2CCN(CC(O)Cn3cccn3)CC2)c(C)o1 (stereo not drawn) | 6.38
104 | CCNc1cc2c(nn1)CCN(C(=O)c1ccc(C(N)=O)cc1)C2 | 20.2
105 | O=C1COC2(CCN(S(=O)(=O)C3CC3)CC2)CN1c1cccnc1 | 40.1
106 | CCCn1ncc(CN(Cc2ccsc2)Cc2ccco2)c1C | -6
107 | Cc1cncc(C(=O)N2CCO[C@H]3[C@H](OCCN(C)C)CC[C@@H]32)c1 | -12.9
108 | Cc1nc(CCNC(Cc2ccncc2)C(F)(F)F)cs1 (stereo not drawn) | -3.19
109 | CC(CNC(=O)c1ccccc1Oc1cccnc1)N(C)C (stereo not drawn) | -6.12
110 | COc1ccc(-c2noc(C3CCS(=O)(=O)C3)n2)cc1OC (stereo not drawn) | -10.7
111 | CC(=O)N1[C@@H](C(=O)NCC2CC2)C[C@@H]2CN(Cc3nccs3)C[C@@H]21 | -9.23
112 | COC1COC2(CCN(Cc3cccc(C#N)c3)CC2)C1 (stereo not drawn) | -10.7
113 | CCn1ncc(S(=O)(=O)NC2(CN3CCOCC3)CCCCC2)c1C | -4.76
